#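 Tested at 5 concentrations; 48 h exposure; 96-well plates; endpoints linearly interpolated, else capped at highest concentration. GI50 = concentration required for 50% inhibition of growth. TGI marks complete inhibition of growth.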
# How the values were obtained:
# Assay in all cases: DTP human tumour cell line panel, 48 h
# OVCAR-5 ovarian = test system: OVCAR-5 ovarian
# SF-539 CNS = test system: SF-539 CNS
# A549 NSCLC = test system: A549 NSCLC
# 786-0 renal = test system: 786-0 renal
# SNB-19 CNS = test system: SNB-19 CNS
# SF-295 CNS = test system: SF-295 CNS
# NCI-H460 lung = test system: NCI-H460 lung
# LOX IMVI melanoma = test system: LOX IMVI melanoma
# OVCAR-8 ovarian = test system: OVCAR-8 ovarian
# MCF7 breast = test system: MCF7 breast
# UO-31 renal = test system: UO-31 renal
# SF-268 CNS = test system: SF-268 CNS
# SW-620 colon = test system: SW-620 colon
# MDA-MB-435 = test system: MDA-MB-435
# SK-MEL-28 melanoma = test system: SK-MEL-28 melanoma
# COLO 205 colon = test system: COLO 205 colon
# T-47D breast = test system: T-47D breast
# TK-10 renal = test system: TK-10 renal
# HOP-62 NSCLC = test system: HOP-62 NSCLC
# OVCAR-3 ovarian = test system: OVCAR-3 ovarian
# BT-549 breast = test system: BT-549 breast
# MDA-MB-231 breast = test system: MDA-MB-231 breast
# MALME-3M melanoma = test system: MALME-3M melanoma
# ACHN renal = test system: ACHN renal
# NCI-H226 lung = test system: NCI-H226 lung
# HCT-116 colon = test system: HCT-116 colon
# EKVX NSCLC = test system: EKVX NSCLC
# OVCAR-4 ovarian = test system: OVCAR-4 ovarian
# MOLT-4 leukemia = test system: MOLT-4 leukemia
# IGROV1 ovarian = test system: IGROV1 ovarian
# SK-MEL-5 melanoma = test system: SK-MEL-5 melanoma
# M14 melanoma = test system: M14 melanoma
# CCRF-CEM leukemia = test system: CCRF-CEM leukemia
# SN12C renal = test system: SN12C renal
# UACC-62 melanoma = test system: UACC-62 melanoma
# U251 CNS = test system: U251 CNS
# UACC-257 melanoma = test system: UACC-257 melanoma
# SK-MEL-2 melanoma = test system: SK-MEL-2 melanoma
# K-562 leukemia = test system: K-562 leukemia
# HS 578T breast = test system: HS 578T breast
# KM12 colon = test system: KM12 colon
# HT29 colon = test system: HT29 colon
# RXF 393 renal = test system: RXF 393 renal
# HCT-15 colon = test system: HCT-15 colon
# NCI/ADR-RES ovarian = test system: NCI/ADR-RES ovarian
# HCC-2998 colon = test system: HCC-2998 colon
# NCI-H522 lung = test system: NCI-H522 lung
# PC-3 prostate = test system: PC-3 prostate
# NCI-H23 lung = test system: NCI-H23 lung
# SR leukemia = test system: SR leukemia
# RPMI-8226 leukemia = test system: RPMI-8226 leukemia
# CAKI-1 renal = test system: CAKI-1 renal
# HOP-92 NSCLC = test system: HOP-92 NSCLC
# DU-145 prostate = test system: DU-145 prostate
# SK-OV-3 ovarian = test system: SK-OV-3 ovarian
# A498 renal = test system: A498 renal
smiles,measurement,setting,value
O=C1C=CC(=O)c2c1ncc1c2nc2sccn21,GI50,OVCAR-5 ovarian,19.8 µM
same,TGI,OVCAR-5 ovarian,40.1 µM
same,GI50,SF-539 CNS,12.4 µM
same,TGI,SF-539 CNS,42.4 µM
same,GI50,A549 NSCLC,52.4 µM
same,TGI,A549 NSCLC,> 100 µM
same,GI50,786-0 renal,15.5 µM
same,TGI,786-0 renal,36.3 µM
same,GI50,SNB-19 CNS,63.8 µM
same,TGI,SNB-19 CNS,> 100 µM
same,GI50,SF-295 CNS,48.3 µM
same,TGI,SF-295 CNS,> 100 µM
same,GI50,NCI-H460 lung,27.2 µM
same,TGI,NCI-H460 lung,> 100 µM
same,GI50,LOX IMVI melanoma,29.9 µM
same,TGI,LOX IMVI melanoma,> 100 µM
same,GI50,OVCAR-8 ovarian,30.5 µM
same,TGI,OVCAR-8 ovarian,> 100 µM
same,GI50,MCF7 breast,20.6 µM
same,TGI,MCF7 breast,> 100 µM
same,GI50,UO-31 renal,13.8 µM
same,TGI,UO-31 renal,72.3 µM
same,GI50,SF-268 CNS,18.5 µM
same,TGI,SF-268 CNS,> 100 µM
same,GI50,SW-620 colon,14.7 µM
same,TGI,SW-620 colon,77.7 µM
same,GI50,MDA-MB-435,16.3 µM
same,TGI,MDA-MB-435,39.2 µM
same,GI50,SK-MEL-28 melanoma,22.9 µM
same,TGI,SK-MEL-28 melanoma,47.2 µM
same,GI50,COLO 205 colon,40.3 µM
same,TGI,COLO 205 colon,> 100 µM
same,GI50,T-47D breast,31.9 µM
same,TGI,T-47D breast,> 100 µM
same,GI50,TK-10 renal,18.3 µM
same,TGI,TK-10 renal,33.5 µM
same,GI50,HOP-62 NSCLC,21.2 µM
same,TGI,HOP-62 NSCLC,47.4 µM
same,GI50,OVCAR-3 ovarian,20.3 µM
same,TGI,OVCAR-3 ovarian,63.4 µM
same,GI50,BT-549 breast,12.4 µM
same,TGI,BT-549 breast,27.7 µM
same,GI50,MDA-MB-231 breast,14.6 µM
same,TGI,MDA-MB-231 breast,39 µM
same,GI50,MALME-3M melanoma,12.7 µM
same,TGI,MALME-3M melanoma,26.5 µM
same,GI50,ACHN renal,21.7 µM
same,TGI,ACHN renal,39.6 µM
same,GI50,NCI-H226 lung,37.6 µM
same,TGI,NCI-H226 lung,> 100 µM
same,GI50,HCT-116 colon,12.5 µM
same,TGI,HCT-116 colon,37.8 µM
same,GI50,EKVX NSCLC,20.2 µM
same,TGI,EKVX NSCLC,44.7 µM
same,GI50,OVCAR-4 ovarian,27.7 µM
same,TGI,OVCAR-4 ovarian,59.8 µM
same,GI50,MOLT-4 leukemia,3.57 µM
same,TGI,MOLT-4 leukemia,> 100 µM
same,GI50,IGROV1 ovarian,22.7 µM
same,TGI,IGROV1 ovarian,56.6 µM
same,GI50,SK-MEL-5 melanoma,16.9 µM
same,TGI,SK-MEL-5 melanoma,37.3 µM
same,GI50,M14 melanoma,15.7 µM
same,TGI,M14 melanoma,39.8 µM
same,GI50,CCRF-CEM leukemia,2.07 µM
same,TGI,CCRF-CEM leukemia,6.62 µM
same,GI50,SN12C renal,23.3 µM
same,TGI,SN12C renal,48.3 µM
same,GI50,UACC-62 melanoma,21.8 µM
same,TGI,UACC-62 melanoma,45.2 µM
same,GI50,U251 CNS,18.3 µM
same,TGI,U251 CNS,43.9 µM
same,GI50,UACC-257 melanoma,20.2 µM
same,TGI,UACC-257 melanoma,37.2 µM
same,GI50,SK-MEL-2 melanoma,42.8 µM
same,TGI,SK-MEL-2 melanoma,> 100 µM
same,GI50,K-562 leukemia,30.1 µM
same,TGI,K-562 leukemia,> 100 µM
same,GI50,HS 578T breast,12.7 µM
same,TGI,HS 578T breast,50.8 µM
same,GI50,KM12 colon,> 100 µM
same,TGI,KM12 colon,> 100 µM
same,GI50,HT29 colon,37.6 µM
same,TGI,HT29 colon,> 100 µM
same,GI50,RXF 393 renal,20.8 µM
same,TGI,RXF 393 renal,64.8 µM
same,GI50,HCT-15 colon,17.9 µM
same,TGI,HCT-15 colon,39.5 µM
same,GI50,NCI/ADR-RES ovarian,29.3 µM
same,TGI,NCI/ADR-RES ovarian,> 100 µM
same,GI50,HCC-2998 colon,78.9 µM
same,TGI,HCC-2998 colon,> 100 µM
same,GI50,NCI-H522 lung,16 µM
same,TGI,NCI-H522 lung,61.2 µM
same,GI50,PC-3 prostate,15.2 µM
same,TGI,PC-3 prostate,30.6 µM
same,GI50,NCI-H23 lung,22.2 µM
same,TGI,NCI-H23 lung,83.7 µM
same,GI50,SR leukemia,3.53 µM
same,TGI,SR leukemia,35.3 µM
same,GI50,RPMI-8226 leukemia,12.7 µM
same,TGI,RPMI-8226 leukemia,47.4 µM
same,GI50,CAKI-1 renal,19.5 µM
same,TGI,CAKI-1 renal,42.5 µM
same,GI50,HOP-92 NSCLC,14.9 µM
same,TGI,HOP-92 NSCLC,31.1 µM
same,GI50,DU-145 prostate,12.8 µM
same,TGI,DU-145 prostate,40 µM
same,GI50,SK-OV-3 ovarian,98.3 µM
same,TGI,SK-OV-3 ovarian,> 100 µM
C=C1C(=O)O[C@H]2C[C@@H]1CCC1(C)OC1CC/C(C)=C/CC[C@H]2C (stereo partly drawn),GI50,OVCAR-5 ovarian,15.9 µM
same,TGI,OVCAR-5 ovarian,30 µM
same,GI50,SF-539 CNS,28.8 µM
same,TGI,SF-539 CNS,50.6 µM
same,GI50,A549 NSCLC,19.7 µM
same,TGI,A549 NSCLC,39 µM
same,GI50,786-0 renal,18.4 µM
same,TGI,786-0 renal,33.1 µM
same,GI50,SNB-19 CNS,16 µM
same,TGI,SNB-19 CNS,32.9 µM
same,GI50,SF-295 CNS,12.3 µM
same,TGI,SF-295 CNS,26.3 µM
same,GI50,NCI-H460 lung,17.1 µM
same,TGI,NCI-H460 lung,33.1 µM
same,GI50,LOX IMVI melanoma,24 µM
same,TGI,LOX IMVI melanoma,38.6 µM
same,GI50,OVCAR-8 ovarian,26.8 µM
same,TGI,OVCAR-8 ovarian,72.2 µM
same,GI50,MCF7 breast,18 µM
same,TGI,MCF7 breast,36.6 µM
same,GI50,UO-31 renal,29.8 µM
same,TGI,UO-31 renal,86.6 µM
same,GI50,SF-268 CNS,18.7 µM
same,TGI,SF-268 CNS,37 µM
same,GI50,SW-620 colon,19.2 µM
same,TGI,SW-620 colon,36.9 µM
same,GI50,MDA-MB-435,18.9 µM
same,TGI,MDA-MB-435,34.6 µM
same,GI50,COLO 205 colon,15.6 µM
same,TGI,COLO 205 colon,36.2 µM
same,GI50,A498 renal,17.7 µM
same,TGI,A498 renal,33.6 µM
same,GI50,T-47D breast,16.9 µM
same,TGI,T-47D breast,37.6 µM
same,GI50,TK-10 renal,17.6 µM
same,TGI,TK-10 renal,31.8 µM
same,GI50,HOP-62 NSCLC,18.9 µM
same,TGI,HOP-62 NSCLC,34.5 µM
same,GI50,OVCAR-3 ovarian,19.1 µM
same,TGI,OVCAR-3 ovarian,35.1 µM
same,GI50,BT-549 breast,23.5 µM
same,TGI,BT-549 breast,45.3 µM
same,GI50,MDA-MB-231 breast,17.7 µM
same,TGI,MDA-MB-231 breast,32.2 µM
same,GI50,ACHN renal,> 100 µM
same,TGI,ACHN renal,> 100 µM
same,GI50,NCI-H226 lung,18.7 µM
same,TGI,NCI-H226 lung,39.4 µM
same,GI50,HCT-116 colon,17.7 µM
same,TGI,HCT-116 colon,31.5 µM
same,GI50,EKVX NSCLC,24.3 µM
same,TGI,EKVX NSCLC,44.3 µM
same,GI50,MOLT-4 leukemia,18 µM
same,TGI,MOLT-4 leukemia,33.5 µM
same,GI50,IGROV1 ovarian,35 µM
same,TGI,IGROV1 ovarian,96.8 µM
same,GI50,SK-MEL-5 melanoma,17.3 µM
same,TGI,SK-MEL-5 melanoma,31.5 µM
same,GI50,M14 melanoma,18 µM
same,TGI,M14 melanoma,31.9 µM
same,GI50,SN12C renal,19 µM
same,TGI,SN12C renal,35.5 µM
same,GI50,UACC-62 melanoma,17.5 µM
same,TGI,UACC-62 melanoma,31.3 µM
same,GI50,U251 CNS,17.7 µM
same,TGI,U251 CNS,31.5 µM
same,GI50,UACC-257 melanoma,19.2 µM
same,TGI,UACC-257 melanoma,37.2 µM
same,GI50,SK-MEL-2 melanoma,48.5 µM
same,TGI,SK-MEL-2 melanoma,> 100 µM
same,GI50,K-562 leukemia,21.6 µM
same,TGI,K-562 leukemia,41.2 µM
same,GI50,HS 578T breast,24 µM
same,TGI,HS 578T breast,61 µM
same,GI50,KM12 colon,22.2 µM
same,TGI,KM12 colon,43.1 µM
same,GI50,HT29 colon,20.1 µM
same,TGI,HT29 colon,34.3 µM
same,GI50,RXF 393 renal,21.4 µM
same,TGI,RXF 393 renal,43.1 µM
same,GI50,HCT-15 colon,17.3 µM
same,TGI,HCT-15 colon,31.1 µM
same,GI50,NCI/ADR-RES ovarian,18.5 µM
same,TGI,NCI/ADR-RES ovarian,35.4 µM
same,GI50,HCC-2998 colon,18.9 µM
same,TGI,HCC-2998 colon,33.1 µM
same,GI50,NCI-H522 lung,37.9 µM
same,TGI,NCI-H522 lung,> 100 µM
same,GI50,PC-3 prostate,19.4 µM
same,TGI,PC-3 prostate,33.5 µM
same,GI50,NCI-H23 lung,19.6 µM
same,TGI,NCI-H23 lung,37.1 µM
same,GI50,SR leukemia,18.1 µM
same,TGI,SR leukemia,33 µM
same,GI50,RPMI-8226 leukemia,20.1 µM
same,TGI,RPMI-8226 leukemia,41.9 µM
same,GI50,SK-OV-3 ovarian,19.3 µM
same,TGI,SK-OV-3 ovarian,37.1 µM
